Data: US11655232B2 (Celgene Corporation, priority 2003, dated 2023)
In brackets after ≈: the same amount, converted by molar mass. Where two headings read alike, the source gives them in different places.

Experiments:
[1] = Temperature/relative humidity stress storage; type: physicochemical
[2] = Moisture sorption/desorption; type: physicochemical
Protocol: Moisture sorption/desorption data were collected on a VTI SGA-100 moisture balance system. For sorption isotherms, a sorption range of 5 to 95% relative humidity (RH) and a desorption range of 95 to 5% RH in 10% RH increments was used for analysis. The sample was not dried prior to analysis. Equilibrium criteria used for analysis were less than 0.0100 weight percent change in 5 minutes with a maximum equilibration time of 3 hours if the weight criterion was not met. Data were not corrected for the initial moisture content of the samples.

[3] = Intrinsic dissolution (Woods apparatus); type: physicochemical
Protocol: Dissolution experiments were carried out in a VanKel VK6010-8 dissolution apparatus equipped with a VK650A heater/circulator. An intrinsic dissolution apparatus (Woods apparatus) was used. Samples were compressed at 1.5 metric tons (1000 psi) for 1 min using the Woods apparatus in a hydraulic press, giving a sample surface of 0.50 cm^2. […] The medium was degassed by vacuum filtration through a 0.22-μm nylon filter disk and maintained at 37° C. The apparatus was rotated at 50 rpm for each experiment. Aliquots were filtered immediately using 0.2-μm nylon syringe filters. In some cases, the undissolved solids were recovered and analyzed by X-ray powder diffraction (XRPD).
Diffracted radiation was detected by a NaI scintillation detector.

physchem = conditions: 25 °C, pH 1.8, aqueous with cosolvent or surfactant or cyclodextrin, thermodynamic from solid
Protocol: (§1) A solid sample of 400-450 mg was stirred in 50 mL of dissolution medium (HCl buffer, pH 1.8, with 1% sodium lauryl sulfate) using a mechanical stir rod. Aliquots were filtered using 0.2-μm nylon syringe filters and immediately diluted 1 mL→50 mL, then 5 mL→25 mL with dissolution medium in Class A glassware, a final dilution factor of 250.
(§2) Dissolution and solubility samples solutions were analyzed by a Beckman DU 640 single-beam spectrophotometer. A 1.000-cm quartz cuvette and an analysis wavelength of 228.40 nm were utilized. The detector was zeroed with a cuvette filled with dissolution medium.
(§3) XRPD analyses were carried out on a Shimadzu XRD-6000 X-ray powder diffractometer using Cu Kα radiation. The instrument is equipped with a fine focus X-ray tube. The tube power and amperage were set at 40 kV and 40 mA, respectively. The divergence and scattering slits were set at 1° and the receiving slit was set at 0.15 mm. Diffracted radiation was detected by a NaI scintillation detector. A theta-two theta continuous scan at 3°/min (0.4 sec/0.02° step) from 2.5 to 40°2θ was used. A silicon standard was analyzed each day to check the instrument alignment. Samples were packed in an aluminum holder with silicon insert.

[4] = pH 1.8
Protocol: as §1, §2, §3

Desolvation by heating = type: physicochemical; conditions: about 125° C. for about five minutes

SMILES: Nc1cccc2c1CN(C1CCC(=O)NC1=O)C2=O (stereo not shown) [Form E, 3-(4-amino-1-oxo-1,3 dihydro-isoindol-2-yl)-piperidine-2,6-dione]
- form after stress storage ([1]; about 85 days, room temperature/0% RH and 40° C./93% RH): typically does not convert to a different form
- form after stress storage ([1]; seven days at room temperature/0% RH): can convert to a new form, Form H
- weight lost from start to finish ([2]; at 5% relative humidity after drying from 95% back down to 5%): about 0.0528 % by weight
- weight gain on moisture sorption ([2]; from 5 to 95% relative humidity): does not exhibit a significant weight change
- Cumulative Amount Dissolved per Unit Area ([3]; Experiment #1, 5 min): 2.70 mg/cm2
- Cumulative Amount Dissolved per Unit Area ([3]; Experiment #1, 10 min): 4.13 mg/cm2
- Cumulative Amount Dissolved per Unit Area ([3]; Experiment #1, 20 min): 6.96 mg/cm2
- Cumulative Amount Dissolved per Unit Area ([3]; Experiment #1, 30 min): 9.60 mg/cm2
- Cumulative Amount Dissolved per Unit Area ([3]; Experiment #1, 45 min): 12.57 mg/cm2
- Cumulative Amount Dissolved per Unit Area ([3]; Experiment #1, 60 min): 15.16 mg/cm2
- Cumulative Amount Dissolved per Unit Area ([3]; Experiment #1, 90 min): 20.82 mg/cm2
- Cumulative Amount Dissolved per Unit Area ([3]; Experiment #2, 5 min): 3.06 mg/cm2
- Cumulative Amount Dissolved per Unit Area ([3]; Experiment #2, 10 min): 4.31 mg/cm2
- Cumulative Amount Dissolved per Unit Area ([3]; Experiment #2, 20 min): 11.40 mg/cm2
- Cumulative Amount Dissolved per Unit Area ([3]; Experiment #2, 30 min): 11.93 mg/cm2
- Cumulative Amount Dissolved per Unit Area ([3]; Experiment #2, 45 min): 14.72 mg/cm2
- Cumulative Amount Dissolved per Unit Area ([3]; Experiment #2, 60 min): 18.52 mg/cm2
- Cumulative Amount Dissolved per Unit Area ([3]; Experiment #2, 90 min): 26.24 mg/cm2
- Cumulative Amount Dissolved per Unit Area ([3]; Experiment #2, 120 min): 33.56 mg/cm2
- Cumulative Amount Dissolved per Unit Area ([3]; Experiment #2, 150 min): 40.82 mg/cm2
- dissolution rates (estimated) ([3]; HCl buffer pH 1.8, 1% sodium lauryl sulfate): 0.23 mg/cm²/min
- Final Form of undissolved solids after intrinsic dissolution (XRPD) ([3]; HCl buffer pH 1.8, 1% sodium lauryl sulfate, 37° C.): did not change
- Average Intrinsic Dissolution Rate ([3]; average of experiments #1 and #2): 0.23 mg per cm^2 per minute
- Intrinsic Dissolution #1 (rate) ([3]; experiment #1, 900 mL HCl buffer pH 1.8, 1% sodium lauryl sulfate, 37° C., 50 rpm): 0.21 mg per cm^2 per minute
- Intrinsic Dissolution #2 (rate) ([3]; experiment #2, HCl buffer pH 1.8, 1% sodium lauryl sulfate, 37° C., 50 rpm): 0.25 mg per cm^2 per minute
- Solubility (physchem): 4700 µg/mL (≈ 18.1 mM)
- Solubility [4]: 4700 µg/mL (≈ 18.1 mM)
- form after heating (desolvation) (Desolvation by heating): can convert to Form B
